According to patent US11000033B2, “Ketone or oxime compound, and herbicide” (NISSAN CHEMICAL CORPORATION, priority 2014, dated 2021):

Tests used:
Format in all cases: in vivo
[1] = test system: Echinochloa oryzacola Vasing.; test: Test Example 1: herbicidal activity, application before weed generation in submerged conditions (symbol A); conditions: application herbicide amount 320 g/ha
Procedure, shortened: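 Weeds are sown into submerged alluvial soil alongside transplanted 2.5-leaf rice, and the compound, as an emulsion diluted to a set rate, is applied onto the water before emergence. Rating on the 0–5 herbicidal-ratio scale follows 3 weeks of greenhouse growth at 25–30 °C.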

[2] = test system: Echinochloa oryzacola Vasing.; test: Test Example 2: herbicidal activity, application during weed generation in submerged conditions (symbol A); conditions: Table 23; application herbicide amount 320 g/ha; grade 0-5 by criteria of Test Example 1
Procedure, shortened: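 Compound was applied as a water-diluted emulsion into the standing water of flooded pots (4 cm) once co-sown weeds reached one to two leaves. Greenhouse temperature was 25° C. to 30° C., soil was alluvial, and each species was rated visually after 3 weeks.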

[3] = test system: Echinochloa crus-galli var. crus-galli; test: Test Example 4: herbicidal effect by soil treatment (symbol H)
Procedure, shortened: (§1)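 Seeds were sown in sterilized diluvial soil, covered with about 1.5 cm of soil, and the soil surface was sprayed with a water-diluted emulsion of the compound at a predetermined rate. Plants grew in a greenhouse at 25° C. to 30° C.; effects were scored visually 3 weeks after application.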

Avena fatua = test: Test Example 4: herbicidal effect by soil treatment (symbol I)
Procedure, shortened: as §1

Alopecurus myosuroides = test: Test Example 4: herbicidal effect by soil treatment (symbol J)
Procedure, shortened: as §1

Lolium multiflorum Lam. [4] = test: Test Example 4: herbicidal effect by soil treatment (symbol K)
Procedure, shortened: as §1

Veronica persica [5] = test: Test Example 4: herbicidal effect by soil treatment (symbol R)
Procedure, shortened: as §1

corn = test: Test Example 4: effect on crop by soil treatment (symbol c)
Procedure, shortened: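 Greenhouse culture at 25° C. to 30° C. followed sowing of seed in spots on sterilized diluvial soil with a soil cover close to 1.5 cm thick.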

rapeseed = test: Test Example 4: effect on crop by soil treatment (symbol g)
Procedure, shortened: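 Crop seeds, among them rice, wheat, beet and rapeseed, were sown in sterilized diluvial soil and covered with about 1.5 cm of soil. Boxes were kept in a greenhouse at 25° C. to 30° C. for plant growth.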

Setaria viridis = test: Test Example 5: herbicidal effect by foliage application, plastic box (symbol G); conditions: 320 g/ha, 3 weeks after application
Procedure, shortened: (§2)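 Visual herbicidal score, taken three weeks post-application, of seedlings sprayed on the foliage with water-diluted emulsion at a predetermined amount; plants were 14 days old, greenhouse-raised at 25° C. to 30° C.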

Lolium multiflorum Lam. [6] = test: Test Example 5: herbicidal effect by foliage application, plastic box (symbol K); conditions: 320 g/ha, 3 weeks after application
Procedure, shortened: as §2

Abutilon theophrasti = test: Test Example 5: herbicidal effect by foliage application, plastic box (symbol M); conditions: 320 g/ha, 3 weeks after application
Procedure, shortened: as §2

Amaranthus retroflexus = test: Test Example 5: herbicidal effect by foliage application, plastic box (symbol N); conditions: 320 g/ha, 3 weeks after application
Procedure, shortened: as §2

Stellaria media = test: Test Example 5: herbicidal effect by foliage application, plastic box (symbol P); conditions: 320 g/ha, 3 weeks after application
Procedure, shortened: as §2

Galium spurium = test: Test Example 5: herbicidal effect by foliage application, plastic box (symbol Q); conditions: 320 g/ha, 3 weeks after application
Procedure, shortened: as §2

Veronica persica [7] = test: Test Example 5: herbicidal effect by foliage application, plastic box (symbol R); conditions: 320 g/ha, 3 weeks after application
Procedure, shortened: as §2

rice plant = test: Test Example 5: effect on crop by foliage application, plastic box (symbol b); conditions: 320 g/ha, 3 weeks after application
Procedure, shortened: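 Foliage-application test plants come from spot sowing in sterilized diluvial soil under a soil layer of about 1.5 cm, grown at 25° C. to 30° C. in a greenhouse.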

[8] = application herbicide amount 320 g/ha

## CCCC(CC1CC(O)=C(c2c(C)cc(C)cc2C)C1=O)=NOC (stereo not shown) [1-062]
[1]
  Herbicidal effect grade, A: Echinochloa oryzacola Vasing.: 5 (Herbicidal ratio of 90% or more (almost completely withered))
[2]
  Herbicidal effect grade, A: Echinochloa oryzacola Vasing.: 3 (Herbicidal ratio of 40% or higher and lower than 70%)
[3]; [8]
  H (Echinochloa crus-galli var. crus-galli) herbicidal effect grade: 5 (Herbicidal ratio of 90% or more (almost completely withered))
Avena fatua; [8]
  I (Avena fatua) herbicidal effect grade: 0 (Herbicidal ratio of 5% or lower (almost no effect))
Alopecurus myosuroides; [8]
  J (Alopecurus myosuroides) herbicidal effect grade: 5 (Herbicidal ratio of 90% or more (almost completely withered))
Lolium multiflorum Lam. [4]; [8]
  K (Lolium multiflorum Lam.) herbicidal effect grade: 5 (Herbicidal ratio of 90% or more (almost completely withered))
Veronica persica [5]; [8]
  R (Veronica persica) herbicidal effect grade: 0 (Herbicidal ratio of 5% or lower (almost no effect))
corn; [8]
  c (corn) effect on crop grade: 4 (Herbicidal ratio of 70% or higher and lower than 90%)
rapeseed; [8]
  g (rapeseed) effect on crop grade: 3 (Herbicidal ratio of 40% or higher and lower than 70%)
Setaria viridis
  G: Setaria viridis, herbicidal effect grade: 4 (Herbicidal ratio of 70% or higher and lower than 90%)
Lolium multiflorum Lam. [6]
  K: Lolium multiflorum Lam., herbicidal effect grade: 5 (Herbicidal ratio of 90% or more (almost completely withered))
Abutilon theophrasti
  M: Abutilon theophrasti, herbicidal effect grade: 0 (Herbicidal ratio of 5% or lower (almost no effect))
Amaranthus retroflexus
  N: Amaranthus retroflexus, herbicidal effect grade: 0 (Herbicidal ratio of 5% or lower (almost no effect))
Stellaria media
  P: Stellaria media, herbicidal effect grade: 0 (Herbicidal ratio of 5% or lower (almost no effect))
Galium spurium
  Q: Galium spurium, herbicidal effect grade: 0 (Herbicidal ratio of 5% or lower (almost no effect))
Veronica persica [7]
  R: Veronica persica, herbicidal effect grade: 0 (Herbicidal ratio of 5% or lower (almost no effect))
Rice plant
  b: directly sowed rice plant, effect on crop grade: 5 (Herbicidal ratio of 90% or more (almost completely withered))

## CON=C(C)CC1CC(OC(=O)COc2ccc(C)cc2)=C(c2c(C)cc(C)cc2C)C1=O (stereo not shown) [1-072]
[1]
  Herbicidal effect grade, A: Echinochloa oryzacola Vasing.: 5 (Herbicidal ratio of 90% or more (almost completely withered))
[2]
  Herbicidal effect grade, A: Echinochloa oryzacola Vasing.: 5 (Herbicidal ratio of 90% or more (almost completely withered))
[3]; [8]
  H (Echinochloa crus-galli var. crus-galli) herbicidal effect grade: 5 (Herbicidal ratio of 90% or more (almost completely withered))
Avena fatua; [8]
  I (Avena fatua) herbicidal effect grade: 4 (Herbicidal ratio of 70% or higher and lower than 90%)
Alopecurus myosuroides; [8]
  J (Alopecurus myosuroides) herbicidal effect grade: 5 (Herbicidal ratio of 90% or more (almost completely withered))
Lolium multiflorum Lam. [4]; [8]
  K (Lolium multiflorum Lam.) herbicidal effect grade: 5 (Herbicidal ratio of 90% or more (almost completely withered))
Veronica persica [5]; [8]
  R (Veronica persica) herbicidal effect grade: 0 (Herbicidal ratio of 5% or lower (almost no effect))
corn; [8]
  c (corn) effect on crop grade: 5 (Herbicidal ratio of 90% or more (almost completely withered))
rapeseed; [8]
  g (rapeseed) effect on crop grade: 4 (Herbicidal ratio of 70% or higher and lower than 90%)
Setaria viridis
  G: Setaria viridis, herbicidal effect grade: 5 (Herbicidal ratio of 90% or more (almost completely withered))
Lolium multiflorum Lam. [6]
  K: Lolium multiflorum Lam., herbicidal effect grade: 5 (Herbicidal ratio of 90% or more (almost completely withered))
Abutilon theophrasti
  M: Abutilon theophrasti, herbicidal effect grade: 5 (Herbicidal ratio of 90% or more (almost completely withered))
Amaranthus retroflexus
  N: Amaranthus retroflexus, herbicidal effect grade: 5 (Herbicidal ratio of 90% or more (almost completely withered))
Stellaria media
  P: Stellaria media, herbicidal effect grade: 2 (Herbicidal ratio of 20% or higher and lower than 40%)
Galium spurium
  Q: Galium spurium, herbicidal effect grade: 2 (Herbicidal ratio of 20% or higher and lower than 40%)
Veronica persica [7]
  R: Veronica persica, herbicidal effect grade: 3 (Herbicidal ratio of 40% or higher and lower than 70%)
Rice plant
  b: directly sowed rice plant, effect on crop grade: 5 (Herbicidal ratio of 90% or more (almost completely withered))

## CON=C(C)CC1CC(OC(=O)COc2ccc(Br)cc2)=C(c2c(C)cc(C)cc2C)C1=O (stereo not shown) [1-081]
[1]
  Herbicidal effect grade, A: Echinochloa oryzacola Vasing.: 5 (Herbicidal ratio of 90% or more (almost completely withered))
[2]
  Herbicidal effect grade, A: Echinochloa oryzacola Vasing.: 5 (Herbicidal ratio of 90% or more (almost completely withered))
[3]; 320 g/ha
  H: Echinochloa crus-galli var. crus-galli, herbicidal effect grade: 5 (Herbicidal ratio of 90% or more (almost completely withered))
Avena fatua; 320 g/ha
  I: Avena fatua, herbicidal effect grade: 3 (Herbicidal ratio of 40% or higher and lower than 70%)
Alopecurus myosuroides; 320 g/ha
  J: Alopecurus myosuroides, herbicidal effect grade: 5 (Herbicidal ratio of 90% or more (almost completely withered))
Lolium multiflorum Lam. [4]; 320 g/ha
  K: Lolium multiflorum Lam., herbicidal effect grade: 5 (Herbicidal ratio of 90% or more (almost completely withered))
Veronica persica [5]; 320 g/ha
  R: Veronica persica, herbicidal effect grade: 0 (Herbicidal ratio of 5% or lower (almost no effect))
corn; 320 g/ha
  c: corn, effect grade on crop: 4 (Herbicidal ratio of 70% or higher and lower than 90%)
rapeseed; 320 g/ha
  g: rapeseed, effect grade on crop: 4 (Herbicidal ratio of 70% or higher and lower than 90%)
Setaria viridis
  G: Setaria viridis, herbicidal effect (criteria 0-5): 5 (Herbicidal ratio of 90% or more (almost completely withered))
Lolium multiflorum Lam. [6]
  K: Lolium multiflorum Lam., herbicidal effect (criteria 0-5): 5 (Herbicidal ratio of 90% or more (almost completely withered))
Abutilon theophrasti
  M: Abutilon theophrasti, herbicidal effect (criteria 0-5): 4 (Herbicidal ratio of 70% or higher and lower than 90%)
Amaranthus retroflexus
  N: Amaranthus retroflexus, herbicidal effect (criteria 0-5): 5 (Herbicidal ratio of 90% or more (almost completely withered))
Stellaria media
  P: Stellaria media, herbicidal effect (criteria 0-5): 0 (Herbicidal ratio of 5% or lower (almost no effect))
Galium spurium
  Q: Galium spurium, herbicidal effect (criteria 0-5): 0 (Herbicidal ratio of 5% or lower (almost no effect))
Veronica persica [7]
  R: Veronica persica, herbicidal effect (criteria 0-5): 0 (Herbicidal ratio of 5% or lower (almost no effect))
Rice plant
  b: directly sowed rice plant, effect on crop (criteria 0-5): 5 (Herbicidal ratio of 90% or more (almost completely withered))

## CON=C(CC1CC(O)=C(c2c(C)cc(C#C[Si](C)(C)C)cc2C)C1=O)C(C)C (stereo not shown) [9-005]
[1]
  Herbicidal effect grade, A: Echinochloa oryzacola Vasing.: 4 (Herbicidal ratio of 70% or higher and lower than 90%)
[2]
  Herbicidal effect grade, A: Echinochloa oryzacola Vasing.: 3 (Herbicidal ratio of 40% or higher and lower than 70%)
[3]; [8]
  Herbicidal effect grade, H: Echinochloa crus-galli var. crus-galli: 0 (Herbicidal ratio of 5% or lower (almost no effect))
Avena fatua; [8]
  Herbicidal effect grade, I: Avena fatua: 0 (Herbicidal ratio of 5% or lower (almost no effect))
Alopecurus myosuroides; [8]
  Herbicidal effect grade, J: Alopecurus myosuroides: 1 (Herbicidal ratio of 5% or higher and lower than 20%)
Lolium multiflorum Lam. [4]; [8]
  Herbicidal effect grade, K: Lolium multiflorum Lam.: 4 (Herbicidal ratio of 70% or higher and lower than 90%)
Veronica persica [5]; [8]
  Herbicidal effect grade, R: Veronica persica: 0 (Herbicidal ratio of 5% or lower (almost no effect))
corn; [8]
  Effect on crop grade, c: corn: 0 (Herbicidal ratio of 5% or lower (almost no effect))
rapeseed; [8]
  Effect on crop grade, g: rapeseed: 0 (Herbicidal ratio of 5% or lower (almost no effect))
Setaria viridis
  G: Setaria viridis, herbicidal effect grade: 4 (Herbicidal ratio of 70% or higher and lower than 90%)
Lolium multiflorum Lam. [6]
  K: Lolium multiflorum Lam., herbicidal effect grade: 5 (Herbicidal ratio of 90% or more (almost completely withered))
Abutilon theophrasti
  M: Abutilon theophrasti, herbicidal effect grade: 0 (Herbicidal ratio of 5% or lower (almost no effect))
Amaranthus retroflexus
  N: Amaranthus retroflexus, herbicidal effect grade: 0 (Herbicidal ratio of 5% or lower (almost no effect))
Stellaria media
  P: Stellaria media, herbicidal effect grade: 0 (Herbicidal ratio of 5% or lower (almost no effect))
Galium spurium
  Q: Galium spurium, herbicidal effect grade: 0 (Herbicidal ratio of 5% or lower (almost no effect))
Veronica persica [7]
  R: Veronica persica, herbicidal effect grade: 0 (Herbicidal ratio of 5% or lower (almost no effect))
Rice plant
  b: directly sowed rice plant, effect on crop grade: 4 (Herbicidal ratio of 70% or higher and lower than 90%)

## CCCCCCCON=C(C)CC1CC(O)=C(c2c(C)cc(C)cc2C)C1=O (stereo not shown) [1-054]
[1]
  Herbicidal effect grade, A: Echinochloa oryzacola Vasing.: 5 (Herbicidal ratio of 90% or more (almost completely withered))
[2]
  Herbicidal effect grade, A: Echinochloa oryzacola Vasing.: 3 (Herbicidal ratio of 40% or higher and lower than 70%)
[3]; [8]
  H (Echinochloa crus-galli var. crus-galli) herbicidal effect grade: 4 (Herbicidal ratio of 70% or higher and lower than 90%)
Avena fatua; [8]
  I (Avena fatua) herbicidal effect grade: 0 (Herbicidal ratio of 5% or lower (almost no effect))
Alopecurus myosuroides; [8]
  J (Alopecurus myosuroides) herbicidal effect grade: 1 (Herbicidal ratio of 5% or higher and lower than 20%)
Lolium multiflorum Lam. [4]; [8]
  K (Lolium multiflorum Lam.) herbicidal effect grade: 5 (Herbicidal ratio of 90% or more (almost completely withered))
Veronica persica [5]; [8]
  R (Veronica persica) herbicidal effect grade: 0 (Herbicidal ratio of 5% or lower (almost no effect))
corn; [8]
  c (corn) effect on crop grade: 0 (Herbicidal ratio of 5% or lower (almost no effect))
rapeseed; [8]
  g (rapeseed) effect on crop grade: 1 (Herbicidal ratio of 5% or higher and lower than 20%)
Setaria viridis
  G: Setaria viridis, herbicidal effect grade: 3 (Herbicidal ratio of 40% or higher and lower than 70%)
Lolium multiflorum Lam. [6]
  K: Lolium multiflorum Lam., herbicidal effect grade: 5 (Herbicidal ratio of 90% or more (almost completely withered))
Abutilon theophrasti
  M: Abutilon theophrasti, herbicidal effect grade: 0 (Herbicidal ratio of 5% or lower (almost no effect))
Amaranthus retroflexus
  N: Amaranthus retroflexus, herbicidal effect grade: 0 (Herbicidal ratio of 5% or lower (almost no effect))
Stellaria media
  P: Stellaria media, herbicidal effect grade: 0 (Herbicidal ratio of 5% or lower (almost no effect))
Galium spurium
  Q: Galium spurium, herbicidal effect grade: 0 (Herbicidal ratio of 5% or lower (almost no effect))
Veronica persica [7]
  R: Veronica persica, herbicidal effect grade: 0 (Herbicidal ratio of 5% or lower (almost no effect))
Rice plant
  b: directly sowed rice plant, effect on crop grade: 4 (Herbicidal ratio of 70% or higher and lower than 90%)
